Assay results from patent US7118895B2, “Process for producing aglycon by using diglycosidase and flavor-improved food containing the aglycon and converting agent to be used in the process” (Amano Enzyme Inc., priority 2000, dated 2006).

System: Crude diglycosidase
Test: Examination of temperature in the conversion into isoflavone aglycons by diglycosidase using soybean materials
Format: biochemical, Penicillium multicolor IAM7153
Set-up: Decomposition efficiency of glycitin family in roasted soy flour / Decomposition efficiency of daidzin family in roasted soy flour / Decomposition efficiency of genistin family in soymilk / Decomposition efficiency of daidzin family in soymilk / Decomposition efficiency of glycitin family in defatted soybean / Decomposition efficiency of daidzin family in defatted soybean: concentration or dose not given beside the values
Method in brief: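 Soybean materials (50 mg) suspended in 20 mM acetate buffer pH 4.0 reacted with crude diglycosidase diluted to 1.88 AU/mL at 80, 65, 55, 45, 37 or 30° C. Reactions stopped with ethanol at 0, 1, 3 and 6 h; isoflavone glycosides and aglycons in supernatant detected by HPLC.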

[1] = 30° C., heat treatment of enzyme no, reaction time 0 h
[2] = 30° C., heat treatment of enzyme no, reaction time 1 h
[3] = 30° C., heat treatment of enzyme no, reaction time 3 h
[4] = 30° C., heat treatment of enzyme no, reaction time 6 h
[5] = 30° C., heat treatment of enzyme yes, reaction time 6 h
[6] = 45° C., heat treatment of enzyme no, reaction time 0 h
[7] = 45° C., heat treatment of enzyme no, reaction time 1 h
[8] = 45° C., heat treatment of enzyme no, reaction time 3 h
[9] = 45° C., heat treatment of enzyme no, reaction time 6 h
[10] = 45° C., heat treatment of enzyme yes, reaction time 6 h
[11] = 45 °C, heat treatment of enzyme: no, 0 h
[12] = 45 °C, heat treatment of enzyme: no, 1 h
[13] = 45 °C, heat treatment of enzyme: no, 3 h
[14] = 45 °C, heat treatment of enzyme: no, 6 h
[15] = 45 °C, heat treatment of enzyme: yes, 6 h
[16] = 55° C., heat treatment of enzyme no, reaction time 0 h
[17] = 55° C., heat treatment of enzyme no, reaction time 1 h
[18] = 55° C., heat treatment of enzyme no, reaction time 3 h
[19] = 55° C., heat treatment of enzyme no, reaction time 6 h
[20] = 55° C., heat treatment of enzyme yes, reaction time 6 h
[21] = 55 °C, heat treatment of enzyme: no, 0 h
[22] = 55 °C, heat treatment of enzyme: no, 1 h
[23] = 55 °C, heat treatment of enzyme: no, 3 h
[24] = 55 °C, heat treatment of enzyme: no, 6 h
[25] = 55 °C, heat treatment of enzyme: yes, 6 h
[26] = 65° C., heat treatment of enzyme no, reaction time 0 h
[27] = 65° C., heat treatment of enzyme no, reaction time 1 h
[28] = 65° C., heat treatment of enzyme no, reaction time 3 h
[29] = 65° C., heat treatment of enzyme no, reaction time 6 h
[30] = 65° C., heat treatment of enzyme yes, reaction time 6 h
[31] = 65 °C, heat treatment of enzyme: no, 0 h
[32] = 65 °C, heat treatment of enzyme: no, 1 h
[33] = 65 °C, heat treatment of enzyme: no, 3 h
[34] = 65 °C, heat treatment of enzyme: no, 6 h
[35] = 65 °C, heat treatment of enzyme: yes, 6 h
[36] = 80° C., heat treatment of enzyme no, reaction time 0 h
[37] = 80° C., heat treatment of enzyme no, reaction time 1 h
[38] = 80° C., heat treatment of enzyme no, reaction time 3 h
[39] = 80° C., heat treatment of enzyme no, reaction time 6 h
[40] = 80° C., heat treatment of enzyme yes, reaction time 6 h
[41] = 80 °C, heat treatment of enzyme: no, 0 h
[42] = 80 °C, heat treatment of enzyme: no, 1 h
[43] = 80 °C, heat treatment of enzyme: no, 3 h
[44] = 80 °C, heat treatment of enzyme: no, 6 h
[45] = 80 °C, heat treatment of enzyme: yes, 6 h

SMILES: O=c1c(-c2ccc(O)cc2)coc2cc(O[C@@H]3O[C@H](CO)[C@@H](O)[C@H](O)[C@H]3O)ccc12 [daidzin]
- Decomposition efficiency of daidzin family in concentrated soybean protein [1]: 52.3%
- Decomposition efficiency of daidzin family in defatted soybean [1]: 42.2%
- Decomposition efficiency of daidzin family in concentrated soybean protein [2]: 29.5%
- Decomposition efficiency of daidzin family in defatted soybean [2]: not detected
- Decomposition efficiency of daidzin family in concentrated soybean protein [3]: 13.4%
- Decomposition efficiency of daidzin family in defatted soybean [3]: not detected
- Decomposition efficiency of daidzin family in concentrated soybean protein [4]: 4.0%
- Decomposition efficiency of daidzin family in defatted soybean [4]: not detected
- Decomposition efficiency of daidzin family in concentrated soybean protein [5]: 54.5%
- Decomposition efficiency of daidzin family in defatted soybean [5]: not detected
- Decomposition efficiency of daidzin family in soymilk (30 °C, heat treatment of enzyme: no, 0 h): 34.1%
- Decomposition efficiency of daidzin family in soymilk (30 °C, heat treatment of enzyme: no, 1 h): not detected
- Decomposition efficiency of daidzin family in soymilk (30 °C, heat treatment of enzyme: no, 3 h): not detected
- Decomposition efficiency of daidzin family in soymilk (30 °C, heat treatment of enzyme: no, 6 h): not detected
- Decomposition efficiency of daidzin family in soymilk (30 °C, heat treatment of enzyme: yes, 6 h): 34.8%
- Decomposition efficiency of daidzin family in roasted soy flour (35 °C, heat treatment of enzyme: no, 0 h): 48.6%
- Decomposition efficiency of daidzin family in roasted soy flour (35 °C, heat treatment of enzyme: no, 1 h): 11.7%
- Decomposition efficiency of daidzin family in roasted soy flour (35 °C, heat treatment of enzyme: no, 3 h): not detected
- Decomposition efficiency of daidzin family in roasted soy flour (35 °C, heat treatment of enzyme: no, 6 h): not detected
- Decomposition efficiency of daidzin family in roasted soy flour (35 °C, heat treatment of enzyme: yes, 6 h): 50.3%
- Decomposition efficiency of daidzin family in concentrated soybean protein [6]: 52.4%
- Decomposition efficiency of daidzin family in defatted soybean [6]: 40.5%
- Decomposition efficiency of daidzin family in concentrated soybean protein [7]: 10.6%
- Decomposition efficiency of daidzin family in defatted soybean [7]: not detected
- Decomposition efficiency of daidzin family in concentrated soybean protein [8]: 9.6%
- Decomposition efficiency of daidzin family in defatted soybean [8]: not detected
- Decomposition efficiency of daidzin family in concentrated soybean protein [9]: 1.7%
- Decomposition efficiency of daidzin family in defatted soybean [9]: not detected
- Decomposition efficiency of daidzin family in concentrated soybean protein [10]: 94.3%
- Decomposition efficiency of daidzin family in defatted soybean [10]: not detected
- Decomposition efficiency of daidzin family in roasted soy flour [11]: 48.6%
- Decomposition efficiency of daidzin family in soymilk [11]: 33.9%
- Decomposition efficiency of daidzin family in roasted soy flour [12]: 3.6%
- Decomposition efficiency of daidzin family in soymilk [12]: 6.8%
- Decomposition efficiency of daidzin family in roasted soy flour [13]: 2.7%
- Decomposition efficiency of daidzin family in soymilk [13]: 6.9%
- Decomposition efficiency of daidzin family in roasted soy flour [14]: 5.4%
- Decomposition efficiency of daidzin family in soymilk [14]: 6.9%
- Decomposition efficiency of daidzin family in roasted soy flour [15]: 49.4%
- Decomposition efficiency of daidzin family in soymilk [15]: 36.0%
- Decomposition efficiency of daidzin family in concentrated soybean protein [16]: 52.5%
- Decomposition efficiency of daidzin family in defatted soybean [16]: 42.2%
- Decomposition efficiency of daidzin family in concentrated soybean protein [17]: 1.0%
- Decomposition efficiency of daidzin family in defatted soybean [17]: not detected
- Decomposition efficiency of daidzin family in concentrated soybean protein [18]: not detected
- Decomposition efficiency of daidzin family in defatted soybean [18]: not detected
- Decomposition efficiency of daidzin family in concentrated soybean protein [19]: not detected
- Decomposition efficiency of daidzin family in defatted soybean [19]: not detected
- Decomposition efficiency of daidzin family in concentrated soybean protein [20]: 54.6%
- Decomposition efficiency of daidzin family in defatted soybean [20]: not detected
- Decomposition efficiency of daidzin family in roasted soy flour [21]: 48.8%
- Decomposition efficiency of daidzin family in soymilk [21]: 34.2%
- Decomposition efficiency of daidzin family in roasted soy flour [22]: not detected
- Decomposition efficiency of daidzin family in soymilk [22]: not detected
- Decomposition efficiency of daidzin family in roasted soy flour [23]: not detected
- Decomposition efficiency of daidzin family in soymilk [23]: not detected
- Decomposition efficiency of daidzin family in roasted soy flour [24]: not detected
- Decomposition efficiency of daidzin family in soymilk [24]: not detected
- Decomposition efficiency of daidzin family in roasted soy flour [25]: 51.1%
- Decomposition efficiency of daidzin family in soymilk [25]: 40.7%
- Decomposition efficiency of daidzin family in concentrated soybean protein [26]: 52.3%
- Decomposition efficiency of daidzin family in defatted soybean [26]: 40.5%
- Decomposition efficiency of daidzin family in concentrated soybean protein [27]: 1.8%
- Decomposition efficiency of daidzin family in defatted soybean [27]: not detected
- Decomposition efficiency of daidzin family in concentrated soybean protein [28]: 1.7%
- Decomposition efficiency of daidzin family in defatted soybean [28]: not detected
- Decomposition efficiency of daidzin family in concentrated soybean protein [29]: 1.7%
- Decomposition efficiency of daidzin family in defatted soybean [29]: not detected
- Decomposition efficiency of daidzin family in concentrated soybean protein [30]: 53.2%
- Decomposition efficiency of daidzin family in defatted soybean [30]: 32.8%
- Decomposition efficiency of daidzin family in roasted soy flour [31]: 48.6%
- Decomposition efficiency of daidzin family in soymilk [31]: 34.1%
- Decomposition efficiency of daidzin family in roasted soy flour [32]: not detected
- Decomposition efficiency of daidzin family in soymilk [32]: not detected
- Decomposition efficiency of daidzin family in roasted soy flour [33]: not detected
- Decomposition efficiency of daidzin family in soymilk [33]: not detected
- Decomposition efficiency of daidzin family in roasted soy flour [34]: not detected
- Decomposition efficiency of daidzin family in soymilk [34]: not detected
- Decomposition efficiency of daidzin family in roasted soy flour [35]: 49.7%
- Decomposition efficiency of daidzin family in soymilk [35]: 48.7%
- Decomposition efficiency of daidzin family in concentrated soybean protein [36]: 52.4%
- Decomposition efficiency of daidzin family in defatted soybean [36]: 40.5%
- Decomposition efficiency of daidzin family in concentrated soybean protein [37]: 22.6%
- Decomposition efficiency of daidzin family in defatted soybean [37]: 7.8%
- Decomposition efficiency of daidzin family in concentrated soybean protein [38]: 23.3%
- Decomposition efficiency of daidzin family in defatted soybean [38]: 19.2%
- Decomposition efficiency of daidzin family in concentrated soybean protein [39]: 25.5%
- Decomposition efficiency of daidzin family in defatted soybean [39]: 30.4%
- Decomposition efficiency of daidzin family in concentrated soybean protein [40]: 54.5%
- Decomposition efficiency of daidzin family in defatted soybean [40]: 60.9%
- Decomposition efficiency of daidzin family in roasted soy flour [41]: 48.6%
- Decomposition efficiency of daidzin family in soymilk [41]: 33.9%
- Decomposition efficiency of daidzin family in roasted soy flour [42]: 3.2%
- Decomposition efficiency of daidzin family in soymilk [42]: 8.9%
- Decomposition efficiency of daidzin family in roasted soy flour [43]: 4.4%
- Decomposition efficiency of daidzin family in soymilk [43]: 23.9%
- Decomposition efficiency of daidzin family in roasted soy flour [44]: 12.5%
- Decomposition efficiency of daidzin family in soymilk [44]: 42.9%
- Decomposition efficiency of daidzin family in roasted soy flour [45]: 51.3%
- Decomposition efficiency of daidzin family in soymilk [45]: 69.5%
